Patent US10088484B2, “Isolated mucins and different microorganisms, and methods of use” (Massachusetts Institute of Technology, priority 2015, dated 2018)

Tests used:
[1] = test system: S. mutans; assay: S. mutans attachment and biofilm formation on glass (Example 2); assay type: cell-based, Streptococcus mutans; conditions: 0.3% polymer in BHI with 1% sucrose, compared to BHI with 1% sucrose
Description: (§1) In FIG. 9, the biofilm is grown, then the supernatant is removed and the biofilm washed with PBS. To remove adherent cells, the bottom of the wells are scraped with a sterile pipette tip. Suspended cells are diluted, plated on agar and […] until colonies are visible.
As shown in FIG. 10A and FIG. 10B and FIG. 11A and FIG. 11B, salivary mucins decrease S. mutans attachment and biofilm formation. […] Error bars represent SDs. […] Scale Bars 20 μm.

[2] = test system: S. mutans; assay: S. mutans growth curve and viable cell count (Example 2); assay type: cell-based, Streptococcus mutans; conditions: 0.3% polymer in BHI with 1% sucrose
Description: As shown in FIG. 12 and FIG. 13, S. mutans survival is unaffected by salivary mucins. […] Error bars represent SDs. […] Error bars represent SDs.

[3] = test system: S. mutans
Description: For dual-species models where S. mutans was the primary colonizer, S. mutans (10^7) was inoculated and incubated for 3 hours then S. sanguinis (10^6) was inoculated. For dual-species models where S. sanguinis was the primary colonizer, S. sanguinis (10^8) was inoculated, incubated for 3 hours, then S. mutans (10^7) was inoculated. After the secondary colonizer was inoculated, the dual-species culture was incubated until the time points indicated. For experiments quantifying biofilm formation, at the end of the experiment the supernatant was used to gently wash the biofilm to resuspend unattached cells, then the supernatant was removed. […] For experiments quantifying total cells, at the end of the experiment a sterile pipette tip was used to scrape the biofilm, then the suspension of biofilm and supernatant cells was vortexed with glass beads. […] Statistically significant differences were determined using the Student's t test, with P<0.05 considered significant.
An in vitro competition model was used to determine the effects of MUC5B on S. mutans and S. sanguinis biofilm formation when co-cultured. […] After 4 hours of co-culture, the supernatant was removed and the number of S. mutans and S. sanguinis in the biofilm were quantified by colony forming units. […] All comparisons of viable CFU discussed in the results are determined relative to the control with half-strength BHI and 1% sucrose. […]

[4] = test system: S. sanguinis; assay: S. mutans / S. sanguinis competition model, S. sanguinis survival (Example 2); assay type: cell-based, Streptococcus sanguinis
Description: The effect of MUC5B on S. mutans and S. sanguinis competition and coexistence was examined. To examine the effect of MUC5B, a model was developed to allow sufficient competition between S. mutans and S. sanguinis (FIG. 7). The two bacteria compete when one colonizes the surface and the second bacteria is introduced after some time.
The presence of 0.3% mucins in control medium, BHI containing 1% sucrose (S Medium), enhances S. sanguinis survival when S. mutans is the primary colonizer (FIG. 8A). * statistically significant difference determined by Student's t test (p<0.05). […] When the ratios of bacteria are equal (FIG. 8C), there is less competition, and effect of MUC5B is small. When the ratio is slightly skewed (FIG. 8B), competition increases and the protective effect of MUC5B is visible. * statistically significant difference determined by Student's t test (p<0.05). The protective effect of MUC5B may increase as inter-species competition increases. […] MUC5B may play a role in establishing a healthy oral microbiome.
as §1

[5] = test system: S. mutans; assay: S. mutans growth curve, mono-species culture (Example 3); assay type: cell-based, Streptococcus mutans UA159
Description: (§2) The suspensions were vortexed with glass beads to individualize cells, then approximately 10^6 cells were inoculated into wells of a 96-well polystyrene plate. At 2-hour intervals the bottom of the wells were scraped to remove any adherent cells, mixed, and an aliquot was removed, diluted and plated on BHI agar. Agar was incubated and CFU were counted after 24-36 hours.
(§3) The growth of S. mutans and S. sanguinis in the same medium used for competition experiments was evaluated to determine if the observed increase in viable cells in the presence of MUC5B (FIGS. 17A-C and FIGS. 18A-C) was due to enhanced bacterial growth. […] Growth in PBS containing MUC5B was studied to better understand if S. mutans and S. sanguinis can utilize MUC5B as a nutrient source when other nutrients are limited.

[6] = test system: S. mutans; assay: CFU count assay, biofilm formation and total cells, single-species model, S. mutans; assay type: cell-based, Streptococcus mutans UA159; conditions: for reduction of S. mutans biofilm formation: 0.4% polymer
Description: (§4) For all experiments, S. mutans (bacterial strain Streptococcus mutans UA159) and S. sanguinis (erythromycin-resistant Streptococcus sanguinis JFP36) were grown overnight in Brain Heart Infusion (BHI) medium (Becton, Dickinson and Company). Before inoculating an experiment the cells were pelleted, washed with half-strength BHI containing 1% (wt/vol) sucrose (Sigma-Aldrich Company), then resuspended in half-strength BHI containing 1% sucrose. Acid-washed glass beads (425-600 μm, Sigma-Aldrich Company) were added to the resuspended bacteria to break up bacterial aggregates then the culture was vortexed for ten pulses of two seconds each. […] All experiments were performed in chambered glass slides at 37° C. with 5% CO2.
(§5) Equal numbers of CFU were inoculated into chambered glass slides then incubated. After a given amount of time, the supernatant was used to gently wash the biofilm to resuspend unattached cells, then the supernatant was removed. PBS was added to the wells then the biofilm was scraped using a sterile pipette tip. The supernatant and biofilm were vortexed with glass beads to individualize cells then the suspension was diluted, plated on BHI agar and incubated for 24-36 hours. […] Statistically significant differences were determined using the Student's t test, with P<0.05 considered significant.
(§6) The effect of MUC5B on S. sanguinis and S. mutans biofilm formation in single-species models was evaluated using colony forming units to quantify surface attached cells and the total number of viable cells in the supernatant and biofilm combined. Bacteria were grown in chambered glass slides in the presence of half-strength BHI with 1% sucrose and 0.4% MUC5B. […] Half-strength BHI was used to provide consistent media conditions throughout experiments in this study. […] All comparisons of viable CFU discussed in the results are determined relative to the control with half-strength BHI and 1% sucrose.

[7] = test system: S. mutans; assay: Dual-species competition model, S. sanguinis primary colonizer: S. mutans CFU; assay type: cell-based, Streptococcus mutans UA159; conditions: for increase of S. mutans CFU (secondary colonizer): S. sanguinis primary colonizer
Description: For dual-species models where S. mutans was the primary colonizer, S. mutans (10^7) was inoculated and incubated for 3 hours then S. sanguinis (10^6) was inoculated. For dual-species models where S. sanguinis was the primary colonizer, S. sanguinis (10^8) was inoculated, incubated for 3 hours, then S. mutans (10^7) was inoculated. After the secondary colonizer was inoculated, the dual-species culture was incubated until the time points indicated. For experiments quantifying biofilm formation, at the end of the experiment the supernatant was used to gently wash the biofilm to resuspend unattached cells, then the supernatant was removed. PBS was added to the wells then the biofilm was scraped using a sterile pipette tip. For experiments quantifying total cells, at the end of the experiment a sterile pipette tip was used to scrape the biofilm, then the suspension of biofilm and supernatant cells was vortexed with glass beads. For both experiments, cell suspensions were diluted then plated on BHI agar containing 10 μg/ml erythromycin to select for S. sanguinis and BHI agar with 1 U/ml bacitracin to select for S. mutans. Agar was incubated for 24-36 hours. […] Statistically significant differences were determined using the Student's t test, with P<0.05 considered significant.
An in vitro competition model was used to determine the effects of MUC5B on S. mutans and S. sanguinis biofilm formation when co-cultured. In this model, the pioneering colonizer was incubated for 3 hours then the secondary colonizer was inoculated and co-cultured for 4 hours (FIG. 15). The competition model used in this study is based on previous work by Kreth et al, J. Bacteriol. 187:7193-7203 (2005). In addition, sequential inoculation allows us to study competition in models where either S. sanguinis or S. mutans is the dominant species, which is relevant to the natural environment of the oral cavity. After 4 hours of co-culture, the supernatant was removed and the number of S. mutans and S. sanguinis in the biofilm were quantified by colony forming units. This method was used to evaluate biofilm formation when S. mutans is the primary colonizer (FIG. 16A) and when S. sanguinis is the primary colonizer (FIG. 16B). All comparisons of viable CFU discussed in the results are determined relative to the control with half-strength BHI and 1% sucrose.
To evaluate the effect of MUC5B on the viability of S. mutans and S. sanguinis in a dual-species competition model, the primary colonizer was incubated for 3 hours then inoculated the secondary colonizer and evaluated the total number of viable cells for each species over several hours (FIG. 15). […] Comparisons of viable CFU discussed in the results are determined relative to the control with half-strength BHI and 1% sucrose.

[8] = test system: S. sanguinis; assay: CFU count assay, biofilm formation and total cells, single-species model, S. sanguinis; assay type: cell-based, Streptococcus sanguinis JFP36; conditions: for reduction of S. sanguinis biofilm formation: 0.4% polymer, relative to control
Description: as §4, §5, §6

[9] = test system: S. sanguinis; assay: Dual-species competition model, S. sanguinis primary colonizer: S. sanguinis CFU; assay type: cell-based, Streptococcus sanguinis JFP36; conditions: 4 hours of co-culture
Description: (§7) Agar was incubated for 24-36 hours.

[10] = test system: S. sanguinis; assay: S. sanguinis growth curve, mono-species culture (Example 3); assay type: cell-based, Streptococcus sanguinis JFP36
Description: as §2, §3

[11] = test system: S. sanguinis; assay: Dual-species competition model, S. mutans primary colonizer: S. sanguinis CFU; assay type: cell-based, Streptococcus sanguinis JFP36; conditions: for increase of live S. sanguinis cells (secondary colonizer): S. mutans primary colonizer
Description: as §7

MUC5B: salivary mucin MUC5B purified by FPLC from pooled human submandibular saliva
levels of S. mutans attachment and biofilm formation on glass [1]: significantly reduces
growth of S. mutans (growth curve) [2]: does not alter the growth
number of viable S. mutans cells (bactericidal effect) ([2]; timepoints up to 24 hours): no bactericidal effects
decrease of S. mutans (primary colonizer) biofilm formation ([3]; 4 hours of co-culture, relative to control): 95%
effect on total viable S. mutans cells ([3]; S. mutans primary colonizer, 5 hours of co-culture): no effect
S. sanguinis survival when S. mutans is the primary colonizer ([4]; 0.3% mucins in BHI with 1% sucrose, S. sanguinis inoculated 3 hours after S. mutans, 4 hours incubation, p<0.05): enhances
protective effect, ratio of bacteria slightly skewed ([4]; ratio slightly skewed (FIG. 8B)): visible
effect on S. sanguinis / S. mutans competition, equal ratios of bacteria ([4]; ratios of bacteria equal (FIG. 8C)): small
effect on S. mutans growth ([5]; 0.4% polymer in half-strength BHI with 1% sucrose, time points up to 10 hours): slightly reduced or had no effect
S. mutans growth with MUC5B as nutrient source ([5]; PBS with 0.4% MUC5B): neither bacterium can utilize MUC5B to enhance growth
total number of viable S. mutans cells (biofilm and supernatant) ([6]; 6 hours): decreased slightly
reduction of S. mutans biofilm formation ([6]; 6 hours, relative to half-strength BHI with 1% sucrose): 94%
S. mutans cells in the biofilm as share of total cells ([6]; 6 hours, with MUC5B (control without polymer 66%)): 13%
total number of S. mutans cells ([6]; 9 hours): no significant effect
reduction of S. mutans biofilm formation ([6]; 9 hours, relative to control): 92%
effect on S. mutans (secondary colonizer) biofilm formation ([7]; S. sanguinis pioneering species, 4 hours of co-culture): no significant effect
increase of S. mutans CFU (secondary colonizer) ([7]; 4 hours of co-culture): 74%
increase of S. mutans CFU (secondary colonizer) ([7]; 5 hours of co-culture): 235%
increase of S. mutans CFU (secondary colonizer) ([7]; 6 hours of co-culture): 568%
number of viable S. sanguinis in the biofilm and supernatant ([8]; 6 and 9 hours): did not change
reduction of S. sanguinis biofilm formation ([8]; 6 hours): 94%
reduction of S. sanguinis biofilm formation ([8]; 9 hours): 86%
reduction of S. sanguinis (pioneering species) biofilm formation ([9]; S. sanguinis pioneering species): 68%
increase of viable S. sanguinis cells (primary colonizer) ([9]; S. sanguinis primary colonizer): 826%
effect on S. sanguinis growth ([10]; 0.4% polymer in half-strength BHI with 1% sucrose): not significantly changed
S. sanguinis growth with MUC5B as nutrient source ([10]; PBS with 0.4% MUC5B): neither bacterium can utilize MUC5B to enhance growth
increase of S. sanguinis (secondary colonizer) biofilm formation ([11]; S. mutans pioneering species, 4 hours of co-culture): 313%
increase of live S. sanguinis cells (secondary colonizer) ([11]; 4 hours of co-culture): 1670%
increase of live S. sanguinis cells (secondary colonizer) ([11]; 5 hours of co-culture): 8700%
